Source: patent US6841519B1, “Isoxazoline derivatives and herbicides containing the same as the active ingredient” (Kumiai Chemical Industry Co., Ltd., priority 1999, dated 2005)

How the values were obtained:
Format in all cases: in vivo
[1] = system: Echinochloa oryzicola Vasing. (Eo); experiment: Test for herbicidal effect by paddy field soil treatment (Test Example 1); details: application amount (active ingredient) 100 g/10 a, examined at the 21st day from the treatment, index per Table 40
Description: <Test Example 1> Test For Herbicidal Effect By Paddy Field Soil Treatment A paddy field soil was filled in a plastic pot of 100 cm^2 and subjected to puddling. Then, seeds of Echinochloa oryzicola Vasing. (Eo) were sowed and water was filled in a depth of 3 cm. Next day, wettable powders produced in accordance with the Formulation 1 were diluted with water and dropped on the water surface. The application amount of each wettable powder was 100 g per 10 ares in terms of the active ingredient. Then, breeding was made in a greenhouse, and the herbicidal effect of each wettable powder was examined at the 21st day from the treatment in accordance with the standard shown in Table 40. [table]

[2] = system: Echinochloa crus-galli (L.) Beauv. var. crusgall (Ec); experiment: Test for herbicidal effect by upland field soil treatment (Test Example 2), Ec; details: application amount (active ingredient) 100 g/10 a, examined at the 21st day from the treatment, index per Table 40
Description: (§1) [table] <Test Example 2> Test For Herbicidal Effect By Upland Field Soil Treatment An upland field soil was filed in a plastic pot of 80 cm^2. Seeds of Echinochloa crus-galli (L.) Beauv. var. crusgall (Ec) and Setaria viridis (L.) Beauv. (Se) were sowed, followed by covering with the same soil. Wettable powders produced in accordance with the Formulation 1 were diluted with water and sprayed uniformly: on the soil surface using a small sprayer, in an amount of 100 liters per 10 ares so that the amount of each active ingredient became 100 g per 10 ares. Then, breeding was made in a greenhouse, and the herbicidal effect of each wettable powder was examined at the 21st day from the treatment in accordance with the standard shown in Table 40.

[3] = system: Setaria viridis (L.) Beauv. (Se); experiment: Test for herbicidal effect by upland field soil treatment (Test Example 2), Se; details: application amount (active ingredient) 100 g/10 a, examined at the 21st day from the treatment, index per Table 40
Description: as §1

[4] = system: Echinochloa crus-galli (L.) Beauv. var. crusgalli (Ec); experiment: Test for herbicidal effect by upland foliage treatment (Test Example 3); details: 100 g/10 a active ingredient, examined at 14th day
Description: Test For Herbicidal Effect By Upland Foliage Treatment
An upland field soil was filed in a plastic pot of 80 cm^2. Seeds of Echinochloa crus-galli (L.) Beauv. var. crusgalli (Ec) were sowed. Breeding was made in a greenhouse for 2 weeks. Wettable powders produced in accordance with the Formulation 1 were diluted with water and sprayed on the whole foliage of plants from above the plants using a small sprayer in an amount of 100 liters per 10 ares so that the amount of each active ingredient became 100 g per 10 ares. Then, breeding was made in the greenhouse, and the herbicidal effect of each wettable powder was examined at the 14th day from the treatment in accordance with the standard shown in Table 40.

Structure (SMILES)	Herbicidal effect to Eo [1]	Herbicidal effect to Ec [2]	Herbicidal effect to Se [3]	Herbicidal effect to Ec [4]
Cc1ccc(CS(=O)(=O)C2=NOC(C)(C)C2)cc1 [Compound 1-7]	5 (A herbicidal effect or phytotoxicity of 90% or more)	5 (A herbicidal effect or phytotoxicity of 90% or more)	5 (A herbicidal effect or phytotoxicity of 90% or more)	4 (A herbicidal effect or phytotoxicity of 70% to less than 90%)
CC1(C)CC(S(=O)(=O)Cc2ccccc2F)=NO1 [Compound 1-32]	5 (A herbicidal effect or phytotoxicity of 90% or more)	5 (A herbicidal effect or phytotoxicity of 90% or more)	5 (A herbicidal effect or phytotoxicity of 90% or more)	5 (A herbicidal effect or phytotoxicity of 90% or more)
CC1(C)CC(S(=O)(=O)Cc2ccccc2Br)=NO1 [Compound 1-35]	5 (A herbicidal effect or phytotoxicity of 90% or more)	5 (A herbicidal effect or phytotoxicity of 90% or more)	5 (A herbicidal effect or phytotoxicity of 90% or more)	4 (A herbicidal effect or phytotoxicity of 70% to less than 90%)
COc1ccccc1CS(=O)(=O)C1=NOC(C)(C)C1 [Compound 1-40]	5 (A herbicidal effect or phytotoxicity of 90% or more)	5 (A herbicidal effect or phytotoxicity of 90% or more)	5 (A herbicidal effect or phytotoxicity of 90% or more)	5 (A herbicidal effect or phytotoxicity of 90% or more)
CCOc1ccccc1CS(=O)(=O)C1=NOC(C)(C)C1 [Compound 1-43]	5 (A herbicidal effect or phytotoxicity of 90% or more)	5 (A herbicidal effect or phytotoxicity of 90% or more)	5 (A herbicidal effect or phytotoxicity of 90% or more)	5 (A herbicidal effect or phytotoxicity of 90% or more)
CC1(C)CC(S(=O)(=O)Cc2ccccc2OC(F)F)=NO1 [Compound 1-55]	5 (A herbicidal effect or phytotoxicity of 90% or more)	5 (A herbicidal effect or phytotoxicity of 90% or more)	5 (A herbicidal effect or phytotoxicity of 90% or more)	4 (A herbicidal effect or phytotoxicity of 70% to less than 90%)
CC1(C)CC(S(=O)(=O)Cc2cccc(OC(F)F)c2)=NO1 [Compound 1-56]	5 (A herbicidal effect or phytotoxicity of 90% or more)	5 (A herbicidal effect or phytotoxicity of 90% or more)	5 (A herbicidal effect or phytotoxicity of 90% or more)	5 (A herbicidal effect or phytotoxicity of 90% or more)
CC1(C)CC(S(=O)(=O)Cc2cccc(OC(F)(F)F)c2)=NO1 [Compound 1-59]	5 (A herbicidal effect or phytotoxicity of 90% or more)	5 (A herbicidal effect or phytotoxicity of 90% or more)	5 (A herbicidal effect or phytotoxicity of 90% or more)	5 (A herbicidal effect or phytotoxicity of 90% or more)
CC1(C)CC(S(=O)(=O)Cc2ccccc2S(C)(=O)=O)=NO1 [Compound 1-106]	5 (A herbicidal effect or phytotoxicity of 90% or more)	5 (A herbicidal effect or phytotoxicity of 90% or more)	5 (A herbicidal effect or phytotoxicity of 90% or more)	4 (A herbicidal effect or phytotoxicity of 70% to less than 90%)
